Test results reported in patent US6613317B1, “Volatile attractants for diabrotica species” (priority 1988, dated 2003).
Several values for one entry are separate records, joined by “and”; a condition that tells them apart may be missing. Equal entries are not always repeated. Marks after values point to notes of the source that are not given here.

Legend:
NCR = test: Limit of response rating of squash blossom volatiles on sticky traps (Example 5); assay type: in vivo, Diabrotica barberi; conditions: 24 hour; four replicate traps; 0.01 mg to 200 mg
Protocol: (§1) Over 40 individual volatile chemicals have been isolated from Cucurbita maxima blossoms and circa 25 of these have been unequivocally identified (Andersen, J. F., J. Agric. Food Chem., 35:60-62 (1987): Andersen, J. F. and Metcalf, R. L., J. Chem. Ecol., 12:687-699 (1986)). The major odor components were evaluated as potential attractants for adult Diabrotica species using cylindrical sticky traps baited with dental cotton wicks (Metcalf, R. L., and Lampman, R. L., Paper submitted to J. Econ. Entomol., (1988)) containing from 0.01 mg to 200 mg of volatile compound.

SCR = test: as above; assay type: in vivo, Diabrotica undecimpunctata howardi; conditions: 24 hour; four replicate traps; 0.01 mg to 200 mg
Protocol: as §1

WCR = test: as above; assay type: in vivo, Diabrotica virgifera virgifera; conditions: 24 hour; four replicate traps; 0.01 mg to 200 mg
Protocol: as §1

[1] = test system: western corn rootworm (WCR) adults; test: Sticky trap attraction in sweet corn plots (Example 1); assay type: in vivo, Diabrotica virgifera virgifera; conditions: August 4, second year, each compound 20 mg per trap
Protocol: (§2) The attraction of Diabrotica species to single-component and multicomponent lures was evaluated in corn fields. The field experiments on attraction of SCR and WCR adults were conducted in 0.405-ha (1-acre) plots of “Illini Xtra Sweet” corn grown on the University of Illinois South Farms at Urbana, Ill., over a two year period. Most of the tests were conducted in August to correspond with the peak silk-feeding and oviposition periods of corn rootworm adults in central Illinois. In both years, the sweet corn plot was adjacent to a 0.405-ha trap crop of C. maxima cultivar “Blue Hubbard”, to provide high densitites of SCR and WCR adults in the corn plots (Howe, et al., Environ. Entomol., 5:745-751 (1976), Lampman, et al., J. Chem. Ecol., 13:959-975 (1987).
(§3) Attraction of Diabrotica species to volatile compounds was measured by the average number of beetles cought during a 24-h period on 1.0-liter cylindrical paper cartons (15.2 cm high, 27.9 cm circumference) which were evenly coated with clear insect adhesive, TangleTrap™ (Tanglefood Co., Grand Rapids, Mich.) The candidate attractants were applied by capillary micropiettes to cotton dental wicks (13 mm long by 6 mm diameter) that were previously impregnated with mineral oil to prolong volatilization. The chemicals were purchased from Aldrich Chemical Co., (Milwaukee, Wis.) and assayed by gas chromatography as >97% pure. Indole, a solid at ambient temperatures (m.p. 52-54° C.), was dissolved in glass-distilled acetone before dosing the cotton wicks. For dosage-acticity tests, the various components were mixed in equal quantities by weight and diluted to the appropriate dosage with acetone. Treated and untreated (control) wicks were attached to the top of the paper cartons with TangleTrap™ and the inverted traps were placed on 1-m-high posts between the sweet corn rows. Four replicates of each treatment and a control were conducted in a randomized complete block desgin. The sticky traps within a block (ca. 50-m row of corn) were 5-10 m apart (depending on the number of treatments in a particular test) and the blocks were 3 m apart. The traps were baited and placed in the field between 1000 and 1300 hours and beetle counts were taken after 24 h. The significance of treatments was determined by analysis of variance and the individual means were separated by Duncan's multiple range test (Statistical Package for Social Sciences (SPSS) (Nie, et al., SPSS: statistical package for the social sciences, 2nd ed. McGraw-Hill, N.Y. (1975)). Student's t test was used for comparisons of two means (Sokal, et al., Biometry, Freeman, San Francisco (1969). Significance levels were set at P=0.05 at all statistical analyses.
(§4) The initial field test in August of the first year evaluated the response of SCR and WCR adults of a mixture of veratrole (V), indole (I), phenylacetaldehyde (P), trans-anethole (A), and eugenol (E) (=VIPAE mixture), as well as to the individual components. Each component in the VIPAE mixture was present at a dosage of 20 mg per trap and was compared with the individual components at 100 mg per trap. The response of SCR and WCR adults to a range of VIPAE doses, 1-300 mg, was conducted on the following day. Fifty SCR adults were removed from each 100-mg VIPAE trap, and returned to the laboratory for sex determination. Additional analyses in August evaluated the reduction in trap catches produced by the sequential removal of the individual components from the VIPAE lure. After the primary components of the initial lure were determined, a modified multicomponent lure consisting of veratrole, indole, and phenylacetaldehyde (=VIP mixture) was compared with its individual components to determine whether the attraction of SCR adults was the result of interactive or additive factors. The attraction and synergistic response of SCR adults of the VIP mixture was verified by tests conducted in August of the following year. […]

D. barberi = test: Sticky trap attraction in prairie habitat, Trelease Woods (Example 2); assay type: in vivo, Diabrotica barberi; conditions: 100 mg per trap, n = 4
Protocol: (§5) The candidate lures in all experiments were purchased commercially and exceeded 98% purity. The test chemicals were applied by capillary micropipettes to cotton dental wicks which were attached to the tops of 1.0 liter cylindrical paper cartons covered with TangleTrap™ (Tanglefoot Co., Grand Rapids, Mich.). The sticky trap techniques used were as described in Example 1. Cinnamyl alcohol and para-methoxycinnamaldehyde, which are solids, were dissolved in glass-distilled acetone prior to dosing the cotton wicks. […]. Control traps had untreated cotton wicks. Four replicates of treated and untreated traps were randomly positioned 10 meters apart on top of 1 m high posts along the border of a eight foot wide strip cut through the middle of a 4.05 ha relict prairie at Trelease Woods (ca. two miles northeast of Urbana, Ill.). The field consisted primarily of Andropogon gerardii Vitman (big bluestem) and a variety of composites. The tests were conducted in mid-August of two years and were timed to coincide with the presence of D. cristata and D. barberi adults in the flower heads of Canada thistle (Carduus arvensis Robson). In the second year, several new attractants of D. v. virgifera and D. barberi were tested in Trelease Woods and along the edge of a 0.8 ha field of hybrid corn located at the Pomology South Farms, Urbana, Ill. Attraction of Diabrotica species to the various lures was measured by the mean number of beetles caught after 24-h. On one date in late August of the first year, D. cristata and D. barberi were removed from the traps and sexed in the laboratory. The significance of treatments in all tests was determined by an analysis of variance and the individual means were separated by Duncan's multiple range test (Statistical Package for Social Science, Nie, et al., SPSS: statistical package for the social sciences, 2nd ed. McGraw-Hill, New York (1975). Data were logarithmically transformed for statistical analysis and the means and standard deviations are presented for the untransformed data.

D. u. howardi = test: as above; assay type: in vivo, Diabrotica undecimpunctata howardi; conditions: 100 mg per trap, n = 4
Protocol: as §5

D. cristata = test: as above; assay type: in vivo, Diabrotica cristata; conditions: 100 mg per trap, n = 4
Protocol: as §5

[2] = test system: southern corn rootworm (SCR) adults; test: Sticky trap attraction in sweet corn plots (Example 1); assay type: in vivo, Diabrotica undecimpunctata howardi; conditions: August 4, second year, each compound 20 mg per trap
Protocol: as §2, §3, §4

D. v. virgifera = test: Sticky trap attraction in prairie habitat, Trelease Woods (Example 2); assay type: in vivo, Diabrotica virgifera virgifera; conditions: 100 mg per trap, n = 4
Protocol: as §5

| Compound | Attractant Rating NCR (by limit of response) (NCR) | Attractant Rating SCR (by limit of response) (SCR) | Attractant Rating WCR (by limit of response) (WCR) | Mean number of D. u. howardi per sticky trap per day (±standard deviation) (D. u. howardi; August 20, first year) | Mean number of D. v. virgifera per sticky trap per day (±standard deviation) (D. v. virgifera; August 20, first year) [per sticky trap per day] | further results |
| --- | --- | --- | --- | --- | --- | --- |
| COc1ccc(OC)c(OC)c1 [1,2,4-trimethoxybenzene] | 0 (200) | +1 (30-100) | +1 (30-100) | – | – | – |
| COc1ccc(OC)cc1 [1,4-dimethoxybenzene] | 0 (200) | 0 (200) | 0 (200) | – | – | – |
| CCCCCC=O [1-hexanal] | 0 (200) | 0 (200) | 0 (200) | – | – | – |
| CCCCCCO [1-hexanol] | 0 (200) | 0 (200) | 0 (200) | – | – | – |
| COc1ccccc1O [Guaiacol, 2-methoxyphenol] | – | – | – | 0.8 ± 1.0^a per sticky trap per day | 0 | relative percent activity (WCR) as compared with the highest mean value for the test date [1]: 39%; Mean number of WCR per trap (±standard deviation) ([1]; n = 4): 20.0 ± 8.9 per trap; Mean number of D. barberi per sticky trap per day (±standard deviation) (D. barberi; August 20, first year): 4.3 ± 2.1^b per sticky trap per day; Mean number of D. cristata per sticky trap per day (±standard deviation) (D. cristata; August 20, first year): 6.0 ± 2.6^b per sticky trap per day; relative percent activity (SCR) as compared with the highest mean value for the test date [2]: 2%; Mean number of SCR per trap (±standard deviation) ([2]; n = 4): 0.8 ± 0.6 per trap |
| CC=Cc1ccc(O)c(OC)c1 [Isoeugenol] | – | – | – | 0.5 ± 1.0^a per sticky trap per day and 1.0 ± 0.8^a per sticky trap per day | 0 | Mean number of D. barberi per sticky trap per day (±standard deviation) (D. barberi; August 18, first year): 31.8 ± 26.7^b per sticky trap per day; Mean number of D. barberi per sticky trap per day (±standard deviation) (D. barberi; August 27, first year): 8.5 ± 3.4^b per sticky trap per day; Mean number of D. u. howardi per sticky trap per day (±standard deviation) (D. u. howardi; August 18, first year): 0.0^a per sticky trap per day; Mean number of D. u. howardi per sticky trap per day (±standard deviation) (D. u. howardi; August 27, first year): 0.5 ± 1.0^a per sticky trap per day; Mean number of D. cristata per sticky trap per day (±standard deviation) (D. cristata; August 18, first year): 10.5 ± 12.6^b per sticky trap per day; Mean number of D. cristata per sticky trap per day (±standard deviation) (D. cristata; August 27, first year): 2.5 ± 1.7^b per sticky trap per day; Mean number of D. v. virgifera per sticky trap per day (±standard deviation) (D. v. virgifera; August 18, first year): 0.0^a per sticky trap per day; Mean number of D. v. virgifera per sticky trap per day (±standard deviation) (D. v. virgifera; August 27, first year): 0 per sticky trap per day |
| C=CCc1ccc(OC)c(OC)c1 [Methyl eugenol] | – | – | – | 0.3 ± 0.5^a per sticky trap per day | 0 | Mean number of D. barberi per day (±standard deviation) (D. barberi; August 14, 1987): 1.0 ± 1.4^a per day; Mean number of D. barberi per sticky trap per day (±standard deviation) (D. barberi; August 18, first year): 1.8 ± 1.7^a per sticky trap per day; Mean number of D. barberi per sticky trap per day (±standard deviation) (D. barberi; August 20, first year): 2.0 ± 1.4^ab per sticky trap per day; Mean number of D. u. howardi per day (±standard deviation) (D. u. howardi; August 14, 1987): 0.3 ± 0.5^a per day; Mean number of D. u. howardi per sticky trap per day (±standard deviation) (D. u. howardi; August 18, first year): 0.0^a per sticky trap per day; Mean number of D. cristata per day (±standard deviation) (D. cristata; August 14, 1987): 4.5 ± 1.3^ab per day; Mean number of D. cristata per sticky trap per day (±standard deviation) (D. cristata; August 18, first year): 1.8 ± 1.5^a per sticky trap per day; Mean number of D. cristata per sticky trap per day (±standard deviation) (D. cristata; August 20, first year): 1.5 ± 1.7^a per sticky trap per day; Mean number of D. v. virgifera per day (±standard deviation) (D. v. virgifera; August 14, 1987): 0.0^a per day; Mean number of D. v. virgifera per sticky trap per day (±standard deviation) (D. v. virgifera; August 18, first year): 0.0^a per sticky trap per day |
| C=CCc1ccc2c(c1)OCO2 [Safrole] | – | – | – | 0.0^a per sticky trap per day | 0 | Mean number of D. barberi per sticky trap per day (±standard deviation) (D. barberi; August 20, first year): 0.25 ± 0.25^a per sticky trap per day; Mean number of D. cristata per sticky trap per day (±standard deviation) (D. cristata; August 20, first year): 1.3 ± 1.9^a per sticky trap per day |
| O=Cc1ccccc1 [benzaldehyde] | 0 (200) | 0 (200) | 0 (200) | – | – | – |
| OCc1ccccc1 [benzyl alcohol] | 0 (200) | 0 (200) | 0 (200) | – | – | – |
| CC/C=C\CCO [cis-3-hexenol] | 0 (200) | 0 (200) | +1 (30-100) | – | – | – |
| C=CC(C)(O)CCC=C(C)CCC=C(C)C (stereo not shown) [nerolidol] | 0 (200) | 0 (200) | 0 (200) | – | – | – |
| COc1ccc(C=O)cc1 [p-methoxybenzaldehyde] | 0 (200) | 0 (200) | 0 (200) | – | – | – |
